In PubChem BioAssay (NCI):
“And” between values parts separate entries of the source, which are not always exact repeats. Identical values can stand only once.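 Five concentrations, 48 hours, 96-well plates. GI50: concentration for 50% inhibition of growth. TGI is the concentration that stops growth completely.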

Legend:
Test in all cases: NCI tumour cell line growth inhibition, 48 h
[1] = test system: 786-0 renal
[2] = test system: COLO 205 colon
[3] = test system: HCT-15 colon
[4] = test system: HL-60(TB) leukemia
[5] = test system: HT29 colon
[6] = test system: IGROV1 ovarian
[7] = test system: KM12 colon
[8] = test system: SK-MEL-5 melanoma
[9] = test system: SK-OV-3 ovarian
[10] = test system: SNB-19 CNS

C[C@]12CC[C@@H]3c4ccc(O)cc4CC[C@H]3[C@@H]1CC[C@@H]2NS(=O)(=O)c1ccc(-c2ccccc2)cc1
GI50 [1]: 3.82 µM | TGI [1]: 22.5 µM | GI50 [2]: 1.86 µM | TGI [2]: 3.38 µM | GI50 [3]: 3.04 µM | TGI [3]: 16.5 µM | GI50 [4]: 6.26 µM | TGI [4]: 47.6 µM | GI50 [5]: 3.3 µM | TGI [5]: 9.16 µM | GI50 [6]: 6.66 µM | TGI [6]: > 100 µM | GI50 [7]: 3.81 µM | TGI [7]: 18.4 µM | GI50 [8]: 1.71 µM | TGI [8]: 3.26 µM | GI50 [9]: 6.79 µM | TGI [9]: > 100 µM | GI50 [10]: 4.92 µM | TGI [10]: > 100 µM

CN1c2ccccc2C(=O)Nc2cnc(Cl)nc21
TGI [1]: > 100 µM | TGI [2]: > 100 µM | TGI [3]: > 100 µM | TGI [4]: > 100 µM | TGI [5]: > 100 µM | TGI [6]: > 100 µM | TGI [7]: > 100 µM | TGI [8]: > 100 µM | TGI [9]: > 100 µM | TGI [10]: > 100 µM

CC(C)n1nc(C#Cc2cccc(NC(=O)c3cccc(C(F)(F)F)c3)c2)c2c(N)ncnc21
GI50 [1]: 2.65 µM | TGI [1]: 14.3 µM | GI50 [2]: 0.524 µM | TGI [2]: 5.73 µM | GI50 [3]: 2.41 µM | TGI [3]: > 100 µM | GI50 [4]: 0.156 µM | TGI [4]: > 100 µM | GI50 [5]: 0.485 µM | TGI [5]: > 100 µM | GI50 [6]: 0.333 µM | TGI [6]: 1.59 µM | GI50 [7]: 3.41 µM | TGI [7]: > 100 µM | GI50 [8]: 2.55 µM | TGI [8]: 30.8 µM | GI50 [9]: 1.98 µM | TGI [9]: 4.55 µM | GI50 [10]: 4.21 µM | TGI [10]: > 100 µM

Nc1ccc2c(c1)CN1C(=O)c3ccccc3C1=N2
GI50 [1]: 36.8 µM | TGI [1]: > 125 µM | GI50 [2]: 33.9 µM | TGI [2]: > 125 µM | GI50 [3]: 42.4 µM | TGI [3]: > 125 µM | GI50 [4]: 15.5 µM | TGI [4]: > 125 µM | GI50 [5]: 19.2 µM | TGI [5]: > 125 µM | GI50 [6]: 51 µM | TGI [6]: 123 µM | GI50 [7]: 37.9 µM | TGI [7]: > 125 µM | TGI [8]: 90.9 µM | GI50 [9]: 46.5 µM | TGI [9]: > 122 µM | GI50 [10]: 60.6 µM | TGI [10]: 124 µM

COc1cc(C2c3cc4c(cc3[C@@H](Nc3cccc(O)c3)C3COC(=O)[C@H]23)OCO4)cc(OC)c1O (stereo partly drawn)
GI50 [1]: 0.98 µM | TGI [1]: 5.36 µM | TGI [2]: 23.1 µM | TGI [3]: 46.4 µM | GI50 [4]: 0.23 µM | TGI [4]: 0.802 µM and 2.73 µM | TGI [5]: 18.8 µM | TGI [6]: 30.4 µM | TGI [7]: 11.6 µM | GI50 [8]: 0.526 µM | TGI [8]: 6.45 µM | TGI [9]: 18 µM | GI50 [10]: 0.949 µM | TGI [10]: 24.9 µM

C=C(CC1(CC(=C)c2ccc(C(=O)O)cc2)C(=O)N(C)C(=O)N(C)C1=O)c1ccc(C(=O)O)cc1
GI50 [1]: > 100 µM | TGI [1]: > 100 µM | GI50 [2]: 29.1 µM | TGI [2]: > 100 µM | GI50 [3]: > 100 µM | TGI [3]: > 100 µM | GI50 [4]: 34.4 µM | TGI [4]: > 100 µM | GI50 [5]: 48.7 µM | TGI [5]: > 100 µM | GI50 [6]: 47.4 µM | TGI [6]: > 100 µM | GI50 [7]: > 100 µM | TGI [7]: > 100 µM | GI50 [8]: 73.1 µM | TGI [8]: > 100 µM | GI50 [9]: 6.02 µM | TGI [9]: 58.7 µM | GI50 [10]: > 100 µM | TGI [10]: > 100 µM

CCC1NCC(=O)c2c1[nH]c1ccccc21 (stereo not drawn)
TGI [1]: > 100 µM | TGI [2]: > 100 µM | TGI [3]: > 100 µM | TGI [4]: > 100 µM | TGI [5]: > 100 µM | TGI [6]: > 100 µM | TGI [7]: > 100 µM | TGI [8]: > 100 µM | TGI [9]: > 100 µM | TGI [10]: > 100 µM

Nc1ncnc2c1ncn2Cc1ccc(C23CC4CC(CC(C4)C2)C3)c(O)c1
GI50 [1]: 25.6 µM | TGI [1]: > 100 µM | GI50 [2]: 29.1 µM | TGI [2]: > 100 µM | GI50 [3]: 58.6 µM | TGI [3]: > 100 µM | GI50 [4]: 5.06 µM | TGI [4]: > 100 µM | GI50 [5]: 15.1 µM | TGI [5]: > 100 µM | GI50 [6]: 27.2 µM | TGI [6]: > 100 µM | GI50 [7]: 13.7 µM | TGI [7]: > 100 µM | GI50 [8]: 4.02 µM | TGI [8]: 88.2 µM | GI50 [9]: 36.3 µM | TGI [9]: > 100 µM | GI50 [10]: 30.3 µM | TGI [10]: > 100 µM
